In US11208412B2 (DAEGU-GYEONGBUK MEDICAL INNOVATION FOUNDATION, priority 2017, dated 2021):

Tests used:
Assay in all cases: Kinase selectivity, DiscoverX scanMAX Kinase assay panel (% control)
Format in all cases: binding
[1] = molecular target: T1, kinases of the scanMAX Kinase assay panel (Homo sapiens, UniProt P49760); settings: CLK2; 1 uM
T1 construct: purchased DiscoverX Co. (contract measurement) scanMAX Kinase assay panel
How it was run: (§1)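 Read-out is % control, normalised so a positive-control compound sits at 0% and DMSO at 100%: (test − positive)/(negative − positive)×100. Each kinase received the compound at 1 uM in DMSO. A value below 35% counts as activity.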

[2] = molecular target: T2, kinases of the scanMAX Kinase assay panel (Homo sapiens, UniProt Q6PHR2); settings: kinase ULK3; 1 uM in DMSO
T2 construct: purchased DiscoverX Co. (contract measurement) scanMAX Kinase assay panel
T2 sequence (Q6PHR2 1-472): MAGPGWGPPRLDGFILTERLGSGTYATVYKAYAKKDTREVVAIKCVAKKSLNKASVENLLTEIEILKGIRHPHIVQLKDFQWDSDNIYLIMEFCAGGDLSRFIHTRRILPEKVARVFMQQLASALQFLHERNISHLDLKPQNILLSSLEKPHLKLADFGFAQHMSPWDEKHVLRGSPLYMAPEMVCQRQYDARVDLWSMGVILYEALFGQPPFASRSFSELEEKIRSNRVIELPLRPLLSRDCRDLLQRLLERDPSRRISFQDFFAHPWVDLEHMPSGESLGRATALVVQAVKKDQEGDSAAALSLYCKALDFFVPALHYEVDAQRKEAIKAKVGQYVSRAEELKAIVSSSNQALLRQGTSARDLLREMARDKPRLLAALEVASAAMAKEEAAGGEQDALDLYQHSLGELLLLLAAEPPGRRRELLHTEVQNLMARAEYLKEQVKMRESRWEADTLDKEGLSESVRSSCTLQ
How it was run: as §1

[3] = molecular target: T3, kinases of the scanMAX Kinase assay panel (Homo sapiens, UniProt Q6ZWH5); settings: NEK10; 1 uM
T3 construct: purchased DiscoverX Co. (contract measurement) scanMAX Kinase assay panel
T3 sequence (Q6ZWH5 1-1172): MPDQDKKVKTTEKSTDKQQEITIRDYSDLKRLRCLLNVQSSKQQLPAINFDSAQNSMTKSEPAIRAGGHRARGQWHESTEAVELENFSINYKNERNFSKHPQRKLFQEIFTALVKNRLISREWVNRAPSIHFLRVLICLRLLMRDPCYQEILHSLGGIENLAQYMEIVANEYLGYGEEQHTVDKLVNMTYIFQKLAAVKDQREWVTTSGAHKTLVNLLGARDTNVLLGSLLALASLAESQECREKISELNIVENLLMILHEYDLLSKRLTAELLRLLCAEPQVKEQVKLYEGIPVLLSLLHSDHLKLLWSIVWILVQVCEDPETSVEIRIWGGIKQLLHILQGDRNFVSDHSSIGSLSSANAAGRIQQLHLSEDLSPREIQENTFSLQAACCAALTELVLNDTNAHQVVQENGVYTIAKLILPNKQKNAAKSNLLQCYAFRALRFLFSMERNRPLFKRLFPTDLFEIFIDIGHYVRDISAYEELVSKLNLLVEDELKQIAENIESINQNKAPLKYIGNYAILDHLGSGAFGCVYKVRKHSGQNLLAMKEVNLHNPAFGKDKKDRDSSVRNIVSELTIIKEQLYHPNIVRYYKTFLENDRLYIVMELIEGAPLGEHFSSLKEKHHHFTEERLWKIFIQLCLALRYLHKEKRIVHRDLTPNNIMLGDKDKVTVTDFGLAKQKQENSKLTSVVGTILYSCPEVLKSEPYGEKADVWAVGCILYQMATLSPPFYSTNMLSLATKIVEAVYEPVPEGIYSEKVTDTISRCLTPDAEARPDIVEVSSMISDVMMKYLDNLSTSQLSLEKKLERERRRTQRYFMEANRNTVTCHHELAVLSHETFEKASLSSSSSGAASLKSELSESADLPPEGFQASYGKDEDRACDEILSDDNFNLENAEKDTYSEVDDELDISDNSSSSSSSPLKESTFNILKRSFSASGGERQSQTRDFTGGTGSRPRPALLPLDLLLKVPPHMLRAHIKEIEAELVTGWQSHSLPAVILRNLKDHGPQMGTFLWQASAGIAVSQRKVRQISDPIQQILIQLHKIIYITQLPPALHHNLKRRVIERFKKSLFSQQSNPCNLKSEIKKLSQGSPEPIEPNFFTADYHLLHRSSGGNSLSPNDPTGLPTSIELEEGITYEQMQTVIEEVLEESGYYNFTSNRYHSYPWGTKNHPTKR
How it was run: as §1

[4] = molecular target: T4, kinases of the scanMAX Kinase assay panel (Homo sapiens, UniProt Q9H0K1); settings: kinase SIK2; 1 uM in DMSO
T4 construct: purchased DiscoverX Co. (contract measurement) scanMAX Kinase assay panel
T4 sequence (Q9H0K1 whole entry): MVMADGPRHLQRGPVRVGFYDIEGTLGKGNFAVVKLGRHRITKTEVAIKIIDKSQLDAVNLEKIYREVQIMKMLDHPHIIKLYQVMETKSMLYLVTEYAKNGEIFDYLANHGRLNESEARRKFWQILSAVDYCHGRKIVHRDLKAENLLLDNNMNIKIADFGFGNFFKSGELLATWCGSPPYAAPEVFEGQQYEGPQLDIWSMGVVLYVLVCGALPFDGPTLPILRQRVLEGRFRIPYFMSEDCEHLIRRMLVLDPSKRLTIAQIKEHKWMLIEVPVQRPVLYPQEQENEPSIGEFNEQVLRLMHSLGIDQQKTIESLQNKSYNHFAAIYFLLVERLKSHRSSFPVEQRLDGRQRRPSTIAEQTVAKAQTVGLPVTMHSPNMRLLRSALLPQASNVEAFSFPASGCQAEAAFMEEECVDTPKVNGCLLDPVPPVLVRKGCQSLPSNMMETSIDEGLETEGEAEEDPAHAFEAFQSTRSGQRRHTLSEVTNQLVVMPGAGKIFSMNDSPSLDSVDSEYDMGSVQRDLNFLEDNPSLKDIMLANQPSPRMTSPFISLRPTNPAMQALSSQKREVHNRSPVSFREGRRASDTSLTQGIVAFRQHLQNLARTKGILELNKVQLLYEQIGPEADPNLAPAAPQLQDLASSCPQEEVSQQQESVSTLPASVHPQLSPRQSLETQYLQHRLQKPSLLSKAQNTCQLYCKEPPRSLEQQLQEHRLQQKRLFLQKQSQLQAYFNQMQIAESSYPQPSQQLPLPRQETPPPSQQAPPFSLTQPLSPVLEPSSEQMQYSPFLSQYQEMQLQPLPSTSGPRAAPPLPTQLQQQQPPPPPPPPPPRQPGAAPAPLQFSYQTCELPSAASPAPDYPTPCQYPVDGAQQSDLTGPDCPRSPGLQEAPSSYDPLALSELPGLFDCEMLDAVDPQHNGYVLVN
How it was run: as §1

T1 sequence (P49760 whole entry): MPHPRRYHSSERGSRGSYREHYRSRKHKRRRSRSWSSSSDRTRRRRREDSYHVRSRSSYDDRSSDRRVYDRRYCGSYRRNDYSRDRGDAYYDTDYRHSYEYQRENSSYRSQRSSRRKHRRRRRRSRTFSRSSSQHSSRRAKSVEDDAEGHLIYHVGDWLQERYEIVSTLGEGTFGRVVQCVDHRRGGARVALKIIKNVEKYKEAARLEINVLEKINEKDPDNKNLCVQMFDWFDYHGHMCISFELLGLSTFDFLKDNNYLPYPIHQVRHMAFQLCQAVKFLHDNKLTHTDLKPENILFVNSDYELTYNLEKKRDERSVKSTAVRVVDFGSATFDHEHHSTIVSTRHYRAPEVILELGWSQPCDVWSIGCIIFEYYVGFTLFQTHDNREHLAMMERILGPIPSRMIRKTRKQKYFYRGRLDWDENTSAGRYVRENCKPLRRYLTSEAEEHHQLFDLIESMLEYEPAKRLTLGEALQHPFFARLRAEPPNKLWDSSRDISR

| SMILES | remaining binding at 1 µM [1] [%] | remaining binding at 1 µM [2] [%] | remaining binding at 1 µM [3] [%] | remaining binding at 1 µM [4] [%] |
| --- | --- | --- | --- | --- |
| CC1(Nc2nc(Nc3cnn([C@H]4CCN(C5COC5)C[C@@H]4F)c3Cl)nc3[nH]cc(C#N)c23)CC1 [Example 52, 2-((5-chloro-1-((3S,4S)-3-fluoro-1-(oxetane-3-yl)piperidine-4-yl)-1H-pyrazole-4-yl)amino)((1-methylcyclopropyl)amino)-7H-pyrrolo[2,3-d]pyrimidine-5-carbonitrile] | 2.6 | 0.2 | 0.95 | 33 |
| CNc1nc(Nc2ccc(C(=O)N3CCOCC3)cc2OC)nc2[nH]cc(C#N)c12 [Example 1, 2-((2-methoxy-4-(morpholine-4-carbonyl)phenyl)amino)-4-(methylamino)-7H-pyrrolo[2,3-d]pyrimidine-5-carbonitrile] | 5.9 | 62 | 53 | 100 |
| CCNc1nc(Nc2ccc(C(=O)N3CCC(N4CCOCC4)CC3)cc2OC)nc2[nH]cc(C(F)(F)F)c12 [Example 104, (4-((4-(ethylamino)-5-(trifluoromethyl)-7H-pyrrolo[2,3-d]pyrimidine-2-yl)amino)-3-methoxyphenyl)(4-morpholinopiperidine-1-yl)methanone] | 0.9 | 100 | 100 | 100 |
